# Source: patent publication US9034874B2, “Carbamate/urea derivatives” (NOVARTIS AG, priority 2012, dated 2015)
# Key:
# human H3 receptors = human H3 receptors (Homo sapiens (Human), UniProt Q9Y5N1); assay: Affinity assessment: displacement of [3H]-N-α-Methylhistamine binding to membranes; conditions: membranes containing human H3 receptors, radioligand [3H]-N-α-Methylhistamine
# Procedure: The affinity of compounds of the invention to the H3 receptor can be assessed by measuring displacement of binding of the radioligand [3H]-N-α-Methylhistamine (PerkinElmer, #NET1027250UC) to membranes containing human H3 receptors (PerkinElmer, #ES-392-M400UA; GenBank: NM_007232.2; Hill S J et al, International Union of Pharmacology XIII. Classification of histamine receptors, Pharmacol Rev, 49(3), 253-278, 1997).
# 2. Compound serial dilution: Dilution was performed by BioTek Precision on compound dilution plate. Compound concentrations start at 5 or 10 μM, 10 point dose titrations with 3- or 5-fold serial dilutions.
# 3. Preparation of 2× membrane solution (25 ml): 1.25 ml human Histamine H3 receptor stock, 23.75 ml assay buffer.
# 4. Preparation of 2× solution of [3H]-N-α-methylhistamine (25 ml): 4.27 μl [3H]-N-α-methylhistamine stock, 25 ml assay buffer.
# 5. Assemble binding reaction: (a) transfer 1 μl of compound solution, 1 μl 100% DMSO and 1 μl 1 M (R)(−)-α-Methylhistamine (Sigma, #H128) to the reaction plate at room temperature, (b) transfer 50 μl of 2× protein solution to reaction plate, (c) transfer 49 μl of 2× radioligand solution to reaction plate (Corning® 96 well EIA/RIA plate; Sigma, #CLS3797).
# 6. Cover the reaction plate with a TopSeal™-A film (Perkin Elmer, #6005185) and incubate at 28° C. for 120 min. Equilibrate Zeba Spin Desalting Plates (Thermo Scientific, #89808) to room temperature for 120 min.
# 7. Remove the sealing material from the bottom of the filtration plate. Place the plate on a wash plate. Centrifuge at 1000 g for 2 min to remove the storage buffer at room temperature.
# 8. Transfer 70 μl binding reaction from reaction plate into filtration plates. Place the filtration plates on top of collection plate. Centrifuge the plate assembly at 1000 g for 2 min to collect the protein with bound radioligand. Add 200 μl of Microscint-40 (PerkinElmer, #6013641-1L) to each well of the collection plate. Cover the plates with TopSeal™-A film.
# 9. Read the plates on Wallac Microbeta Trilux 2450, Instrument settings: counting mode: CPM, counting time: 2 min.
# 10. Data analysis: GraphPad Prism: log (compound concentration) vs. response; variable slope. The Ki is calculated based on Chang and Prusoff: Ki=IC50/{1+([radioligand]/Kd)}
# wakefulness in rats = assay: Effects on wakefulness (EEG/EMG recordings); format: in vivo, rat; conditions: oral, first 4 hours after administration
# Procedure: Animals: Male Sprague-Dawly rats (280-320 g) were housed individually under an ambient temperature of 22±0.5° C. with a relative humidity of 60±2% and an automatically controlled 12-h light/12-h dark cycle (light on at 07:00, illumination intensity 100 lux). The animals had free access to food and water.
# EEG recording set up, Polygraphic Recordings and Vigilance State Analysis: Under pentobarbital anesthesia (50 mg/kg, i.p.), rats were chronically implanted with EEG and electromyogram (EMG) electrodes for polysomnographic recordings (Huang et al, J Neurosci, 23, 5975-5983, 2003). Two stainless steel screws (1 mm in diameter) EEG electrodes (the first screw: anteroposterior (AP), +2 mm; left-right (LR), −2 mm; and the second: AP, −2 mm; LR, −2 mm, AP from bregma, LR from lambda) and a reference electrode (opposite to EEG screw side, AP, +3 mm; LR, 3 mm) were surgically implanted and 3 stainless steel screws for anchorage to the skull. Two insulated stainless steel, Teflon-coated wires were bilaterally placed into both trapezius muscles and served as EMG electrodes for rats. All electrodes were attached to a micro connector and fixed to the skull with dental cement. […]
# For the study of spontaneous sleep-wakefulness cycles, each animal was recorded for 24 h beginning at 19:00 P.M., the offset of the light period. The animals then entered the pharmacological phase of the study, in which sleep-wakefulness parameters were recorded for 72 h. […]
# Cortical EEG and EMG signals were amplified, filtered (EEG, 0.5-30 Hz; EMG, 20-200 Hz), digitized at a sampling rate of 128 Hz, and recorded by using SLEEPSIGN (Kissei Comtec, Nagano, Japan). When complete, polygraphic recordings were automatically scored offline by 4-sec epochs as wake, REM, and NREM sleep by SleepSign according to standard criteria (Huang et al, Nat Neurosci, 8, 858-859, 2005). […]
# Time-course changes in the amounts of sleep-wake, sleep/wake stage transition number, as well as number and duration of sleep/wake bouts in light/dark phases, were analyzed by the paired t test, with each animal serving as its own control. […]
# human H3 receptors, sequence (Q9Y5N1 whole entry): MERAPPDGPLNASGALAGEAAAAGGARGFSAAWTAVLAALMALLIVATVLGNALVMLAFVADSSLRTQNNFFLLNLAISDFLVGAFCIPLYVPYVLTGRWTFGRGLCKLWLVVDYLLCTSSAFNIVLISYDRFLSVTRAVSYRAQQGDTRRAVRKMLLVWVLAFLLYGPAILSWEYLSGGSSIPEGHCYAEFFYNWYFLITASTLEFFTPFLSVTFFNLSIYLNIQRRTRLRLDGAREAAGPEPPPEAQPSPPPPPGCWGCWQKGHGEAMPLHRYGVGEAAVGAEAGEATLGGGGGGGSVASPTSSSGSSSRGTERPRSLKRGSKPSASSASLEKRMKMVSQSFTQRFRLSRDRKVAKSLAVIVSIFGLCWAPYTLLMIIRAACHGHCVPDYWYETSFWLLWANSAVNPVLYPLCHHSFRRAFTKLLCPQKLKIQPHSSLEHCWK
Structure (SMILES),Ki (human H3 receptors) [nM],% increase in wakefulness at 10 mg (wakefulness in rats) [%]
"O=C(OC1CCN(c2ccc(=O)[nH]n2)CC1)N1CCN(C2CCC2)CC1 [Example 1.1, 1-(6-oxo-1,6-dihydropyridazin-3-yl)piperidin-4-yl 4-cyclobutylpiperazine-1-carboxylate]",26,42.1
"CC(C)N1CCN(C(=O)OC2CCN(c3ccc(=O)n(C)n3)CC2)CC1 [Example 1.2, 1-(1-methyl-6-oxo-1,6-dihydropyridazin-3-yl)piperidin-4-yl 4-isopropylpiperazine-1-carboxylate]",31,48.8
"CC(C)N1CCN(C(=O)OC2CCN(c3ccc(=O)[nH]n3)CC2)CC1 [Example 1.3, 1-(6-oxo-1,6-dihydropyridazin-3-yl)piperidin-4-yl 4-isopropylpiperazine-1-carboxylate]",10,19.1
